In ChEMBL document CHEMBL4823254, “Tetrahydroquinoline-Capped Histone Deacetylase 6 Inhibitor SW-101 Ameliorates Pathological Phenotypes in a Charcot-Marie-Tooth Type 2A Mouse Model” (J Med Chem, 2021):
The source made the active and inactive calls. The rule behind the calls is not given here.

Legend:
[1] = Toxicity in mouse assessed as adverse effect at 10 to 20 mg/kg, ip administered for 3 days every 12 hrs; format: organism-based; conditions: in vivo, 72 h, dose 10-20 mg/kg, time 3 day
[2] = Tmax in C57BL/6J mouse plasma at 15 mg/kg, ip; format: ADME, organism-based
[3] = Half life in C57BL/6J mouse brain at 15 mg/kg, ip; format: ADME, organism-based
[4] = Half life in human pooled liver microsomes assessed as parent compound remaining measured up to 60 mins in presence of NADPH by LC-MS/MS analysis; format: ADME, Microsome; conditions: pooled liver microsomes
[5] = Half life in human liver s9 fraction; format: ADME, subcellular
[6] = target: Histone deacetylase 2 (Homo sapiens, UniProt Q92769); assay: Inhibition of recombinant human HDAC2 using Ac-GAK(Ac)-AMC as substrate preincubated for 10 mins followed by substrate addition and measured after 30 mins by fluorescence-based assay
[7] = Tmax in C57BL/6J mouse brain at 15 mg/kg, ip; format: ADME, organism-based
[8] = tested on: Mus musculus; assay: Neuroprotective activity in hMFN2-induced CMT2A transgenic mouse model assessed as increase in paw withdrawal latency at 20 mg/kg, ip qd administered when treated prior with compound dissolved in PBS/PEG400/Tween80/EtOH (50/35/10/5) wt% as vehicle by von Frey test; format: functional, organism-based
[9] = Stability in CD1 mouse pooled liver microsomes assessed as parent compound remaining measured at 60 mins in presence of NADPH by LC-MS/MS analysis; format: ADME, Microsome; conditions: CD1, mouse, pooled liver microsomes, read-out: Stabilty
[10] = Stability in human pooled liver microsomes assessed as parent compound remaining measured at 60 mins in presence of NADPH by LC-MS/MS analysis; format: ADME, Microsome; conditions: pooled liver microsomes, read-out: Stabilty
[11] = target: T1, Protein deacetylase HDAC6 (Mus musculus) (UniProt Q9Z2V5); assay: In vivo inhibition of HDAC6 in wild type mouse assessed as increase in alpha-tubulin acetylation in sciatic nerve tissue at 20 mg/kg, ip administered for 12 hrs by immunoblot analysis relative to control; format: functional, organism-based; parameters: scale not given: the % may be the effect or the level left
T1 sequence (whole entry): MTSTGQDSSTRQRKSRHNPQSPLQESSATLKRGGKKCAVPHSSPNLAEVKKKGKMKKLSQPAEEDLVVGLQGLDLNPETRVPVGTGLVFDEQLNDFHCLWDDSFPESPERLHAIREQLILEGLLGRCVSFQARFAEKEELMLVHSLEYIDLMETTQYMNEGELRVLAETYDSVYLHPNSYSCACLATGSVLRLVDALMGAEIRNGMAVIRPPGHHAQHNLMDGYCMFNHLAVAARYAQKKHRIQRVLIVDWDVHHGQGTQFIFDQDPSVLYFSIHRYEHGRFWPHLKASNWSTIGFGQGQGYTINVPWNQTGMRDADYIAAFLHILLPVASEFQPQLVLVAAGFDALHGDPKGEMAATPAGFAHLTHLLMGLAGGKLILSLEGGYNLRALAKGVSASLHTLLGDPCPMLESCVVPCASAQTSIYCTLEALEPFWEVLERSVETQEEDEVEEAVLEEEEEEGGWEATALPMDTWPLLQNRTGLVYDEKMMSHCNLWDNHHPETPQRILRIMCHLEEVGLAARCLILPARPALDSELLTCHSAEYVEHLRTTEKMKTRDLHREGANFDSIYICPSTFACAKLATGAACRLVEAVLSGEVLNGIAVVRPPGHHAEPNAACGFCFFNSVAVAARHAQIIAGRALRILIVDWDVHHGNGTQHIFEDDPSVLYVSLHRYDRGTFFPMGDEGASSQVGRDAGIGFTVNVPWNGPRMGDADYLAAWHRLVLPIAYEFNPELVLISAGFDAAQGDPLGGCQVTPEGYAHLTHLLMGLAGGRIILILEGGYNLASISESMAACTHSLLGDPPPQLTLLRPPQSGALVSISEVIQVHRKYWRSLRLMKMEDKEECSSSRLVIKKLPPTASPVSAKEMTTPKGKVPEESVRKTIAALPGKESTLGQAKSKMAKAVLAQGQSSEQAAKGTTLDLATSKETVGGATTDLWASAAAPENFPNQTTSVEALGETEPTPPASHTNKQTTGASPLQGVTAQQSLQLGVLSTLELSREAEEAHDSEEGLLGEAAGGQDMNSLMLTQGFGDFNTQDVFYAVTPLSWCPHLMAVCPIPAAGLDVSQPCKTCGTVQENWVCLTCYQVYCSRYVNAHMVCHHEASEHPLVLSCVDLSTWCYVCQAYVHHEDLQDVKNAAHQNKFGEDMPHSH

[12] = target: hERG (KCNH2) (Homo sapiens, UniProt Q12809); assay: Inhibition of human ERG expressed in CHO cells at 10 uM by automated patch clamp method relative to control; format: cell-based; conditions: CHO cells expressing human ERG
Sequence of hERG (KCNH2) (Q12809 whole entry): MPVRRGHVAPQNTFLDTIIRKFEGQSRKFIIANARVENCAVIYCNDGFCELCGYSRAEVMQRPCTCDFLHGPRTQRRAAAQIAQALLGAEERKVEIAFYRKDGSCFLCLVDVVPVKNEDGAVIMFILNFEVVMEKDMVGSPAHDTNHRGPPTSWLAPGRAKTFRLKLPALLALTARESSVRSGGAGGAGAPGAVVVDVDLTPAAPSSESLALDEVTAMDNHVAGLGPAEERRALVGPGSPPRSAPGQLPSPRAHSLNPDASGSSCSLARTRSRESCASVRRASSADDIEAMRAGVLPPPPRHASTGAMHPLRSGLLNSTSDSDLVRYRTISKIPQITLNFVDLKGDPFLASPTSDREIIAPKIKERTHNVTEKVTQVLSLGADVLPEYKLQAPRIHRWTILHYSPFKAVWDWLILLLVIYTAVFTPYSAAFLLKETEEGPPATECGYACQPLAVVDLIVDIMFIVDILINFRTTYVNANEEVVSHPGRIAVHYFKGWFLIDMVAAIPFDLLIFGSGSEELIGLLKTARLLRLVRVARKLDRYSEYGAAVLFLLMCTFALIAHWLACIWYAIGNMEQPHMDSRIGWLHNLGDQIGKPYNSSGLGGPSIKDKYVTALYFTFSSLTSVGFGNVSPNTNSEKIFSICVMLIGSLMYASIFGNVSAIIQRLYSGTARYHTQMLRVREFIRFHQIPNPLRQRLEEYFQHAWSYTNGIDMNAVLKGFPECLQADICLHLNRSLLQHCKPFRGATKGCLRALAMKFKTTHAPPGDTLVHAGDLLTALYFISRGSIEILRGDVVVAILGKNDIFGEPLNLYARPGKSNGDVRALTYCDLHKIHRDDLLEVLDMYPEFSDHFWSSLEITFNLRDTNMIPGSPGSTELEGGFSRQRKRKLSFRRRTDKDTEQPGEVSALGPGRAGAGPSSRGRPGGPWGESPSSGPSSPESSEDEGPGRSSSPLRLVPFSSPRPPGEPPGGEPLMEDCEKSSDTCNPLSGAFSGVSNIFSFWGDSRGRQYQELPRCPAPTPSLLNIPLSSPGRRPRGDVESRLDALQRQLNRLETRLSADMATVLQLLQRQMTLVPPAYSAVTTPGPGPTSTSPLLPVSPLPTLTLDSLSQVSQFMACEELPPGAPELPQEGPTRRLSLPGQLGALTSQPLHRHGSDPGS

Sequence of Histone deacetylase 2 (Q92769 whole entry): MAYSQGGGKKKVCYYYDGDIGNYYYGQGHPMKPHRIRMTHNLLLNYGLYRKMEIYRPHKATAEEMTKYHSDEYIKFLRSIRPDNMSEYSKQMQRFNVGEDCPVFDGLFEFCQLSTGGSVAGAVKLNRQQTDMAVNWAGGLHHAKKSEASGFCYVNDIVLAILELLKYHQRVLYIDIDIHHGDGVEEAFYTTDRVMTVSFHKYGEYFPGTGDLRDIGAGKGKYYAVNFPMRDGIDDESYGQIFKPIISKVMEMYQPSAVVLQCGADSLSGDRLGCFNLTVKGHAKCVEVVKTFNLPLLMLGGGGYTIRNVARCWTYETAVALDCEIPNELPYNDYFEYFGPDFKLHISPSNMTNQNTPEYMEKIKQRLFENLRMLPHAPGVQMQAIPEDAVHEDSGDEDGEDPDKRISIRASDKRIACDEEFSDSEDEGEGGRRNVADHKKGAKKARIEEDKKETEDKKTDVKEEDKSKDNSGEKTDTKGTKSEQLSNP

NC(=O)c1ccc2c(c1)CCCN2Cc1ccc(C(=O)NO)cc1
Activity [1]: Non-Toxic
Tmax [2]: 4.8 min
half-life [3]: 2.9 h
half-life [4]: 2.89 h
half-life [5]: > 16.7 h
IC50 [6]: 140 nM
Tmax [7]: 0.25 h
Activity [8]: Active
remaining at 1 h [9]: 56%
remaining at 1 h [10]: 76.3%
Activity [11]: 175%
inhibition at 10 µM [12]: 30%
